SMILES | Tg of the amorphous form relative to normal storage temperature (normal storage temperature of 20° C. to 25° C.) | Glass transition temperature of the amorphous form (DSC)
CN1[C@@H]2C[C@@H](OC(=O)[C@H](CO)c3ccccc3)C[C@H]1[C@@H]1O[C@@H]12 [scopolamine] | lower than the normal storage temperature | 
CCN(CC)CC#CCOC(=O)C(O)(c1ccccc1)C1CCCCC1 (centres unmarked) [oxybutynin base, oxybutynin] |  | about −20 °C
